Test system: 786-0 complex spheroids with HUVEC/MSC, growth % test/control
Assay: Anticancer human tumor 786-0 cell line growth inhibition [AhR];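 note: compound exposure lasted seven days before the read-out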
Details: for IC50: curve of first compound; for viability, T/C: stronger effect = lower value
How it was run: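 Spheroids combined tumor cells with HUVEC endothelial cells and human MSCs as stroma. AhR antagonists were paired with standard or investigational drugs, each dosed in half-log steps down from near clinical Cmax, or from 10 microM where Cmax was unknown.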

[1] = second compound 0.1 µM, first compound 0.00316 µM
[2] = second compound 0.1 µM, first compound 0.01 µM
[3] = second compound 0.1 µM, first compound 0.0316 µM
[4] = second compound 0.1 µM, first compound 0.1 µM
[5] = second compound 0.316 µM, first compound 0.00316 µM
[6] = second compound 0.316 µM, first compound 0.01 µM
[7] = second compound 0.316 µM, first compound 0.0316 µM
[8] = second compound 0.316 µM, first compound 0.1 µM
[9] = second compound 1 µM, first compound 0.00316 µM
[10] = second compound 1 µM, first compound 0.01 µM
[11] = second compound 1 µM, first compound 0.0316 µM
[12] = second compound 1 µM, first compound 0.1 µM
[13] = second compound 3.16 µM, first compound 0.00316 µM
[14] = second compound 3.16 µM, first compound 0.01 µM
[15] = second compound 3.16 µM, first compound 0.0316 µM
[16] = second compound 3.16 µM, first compound 0.1 µM
[17] = second compound 10 µM, first compound 0.00316 µM
[18] = second compound 10 µM, first compound 0.01 µM
[19] = second compound 10 µM, first compound 0.0316 µM
[20] = second compound 10 µM, first compound 0.1 µM
[21] = second compound 0.1 µM, first compound 0.316 µM
[22] = second compound 0.1 µM, first compound 1 µM
[23] = second compound 0.1 µM, first compound 3.16 µM
[24] = second compound 0.1 µM, first compound 10 µM
[25] = second compound 0.316 µM, first compound 0.316 µM
[26] = second compound 0.316 µM, first compound 1 µM
[27] = second compound 0.316 µM, first compound 3.16 µM
[28] = second compound 0.316 µM, first compound 10 µM
[29] = second compound 1 µM, first compound 0.316 µM
[30] = second compound 1 µM, first compound 1 µM
[31] = second compound 1 µM, first compound 3.16 µM
[32] = second compound 1 µM, first compound 10 µM
[33] = second compound 3.16 µM, first compound 0.316 µM
[34] = second compound 3.16 µM, first compound 1 µM
[35] = second compound 3.16 µM, first compound 3.16 µM
[36] = second compound 3.16 µM, first compound 10 µM
[37] = second compound 10 µM, first compound 0.316 µM
[38] = second compound 10 µM, first compound 1 µM
[39] = second compound 10 µM, first compound 3.16 µM
[40] = second compound 10 µM, first compound 10 µM

Row | SMILES | IC50 (second compound 0.1 µM) | IC50 (second compound 0.316 µM) | IC50 (second compound 1 µM) | IC50 (second compound 3.16 µM) | IC50 (second compound 10 µM) | viability, T/C [3] | viability, T/C [4] | viability, T/C [7] | viability, T/C [8] | viability, T/C [11] | viability, T/C [12] | viability, T/C [15] | viability, T/C [16] | viability, T/C [19] | viability, T/C [20] | viability, T/C [21] | viability, T/C [22] | viability, T/C [25] | viability, T/C [26] | viability, T/C [29] | other results
1 | CC[C@@]1(O)C(=O)OCc2c1cc1n(c2=O)Cc2cc3c(CN(C)C)c(O)ccc3nc2-1 + Cc1cncc(-c2nc(NCCc3c[nH]c4ccccc34)c3ncn(C(C)C)c3n2)c1 | 61.6 nM | 64.2 nM | 56.1 nM | 28.1 nM | < 0.316 nM | 91.1% | 20.1% | 99% | 19.2% | 83.5% | 16% | 46.5% | 9.39% | 1.61% | 0.53% |  |  |  |  |  | viability, T/C (second compound 0.1 µM, first compound 0.000316 µM): 116%; viability, T/C (second compound 0.1 µM, first compound 0.001 µM): 118%; viability, T/C [1]: 117%; viability, T/C [2]: 115%; viability, T/C (second compound 0.316 µM, first compound 0.000316 µM): 113%; viability, T/C (second compound 0.316 µM, first compound 0.001 µM): 107%; viability, T/C [5]: 119%; viability, T/C [6]: 112%; viability, T/C (second compound 1 µM, first compound 0.000316 µM): 109%; viability, T/C (second compound 1 µM, first compound 0.001 µM): 109%; viability, T/C [9]: 103%; viability, T/C [10]: 108%; viability, T/C (second compound 3.16 µM, first compound 0.000316 µM): 73.4%; viability, T/C (second compound 3.16 µM, first compound 0.001 µM): 78.5%; viability, T/C [13]: 88.8%; viability, T/C [14]: 83%; viability, T/C (second compound 10 µM, first compound 0.000316 µM): 15.5%; viability, T/C (second compound 10 µM, first compound 0.001 µM): 11%; viability, T/C [17]: 11.8%; viability, T/C [18]: 4.85%
2 | COc1cc(C2c3cc4c(cc3C(OC3OC5COC(C)OC5C(O)C3O)C3COC(=O)C23)OCO4)cc(OC)c1O (stereo not given) + Cc1cncc(-c2nc(NCCc3c[nH]c4ccccc34)c3ncn(C(C)C)c3n2)c1 | 1150 nM | 1290 nM | 1320 nM | 444 nM | < 31.6 nM | 114% | 127% | 128% | 121% | 107% | 117% | 81.3% | 79.1% | 6.55% | 4.82% | 87% | 49.9% | 86.8% | 52.9% | 85.2% | viability, T/C [23]: 35.5%; viability, T/C [24]: 9.86%; viability, T/C [27]: 33.4%; viability, T/C [28]: 7.71%; viability, T/C [30]: 53.3%; viability, T/C [31]: 32.3%; viability, T/C [32]: 4.59%; viability, T/C [33]: 56.2%; viability, T/C [34]: 30.5%; viability, T/C [35]: 15.8%; viability, T/C [36]: 2.3%; viability, T/C [37]: 1.24%; viability, T/C [38]: 0.35%; viability, T/C [39]: 0.49%; viability, T/C [40]: 0.43%
3 | COc1cccc2c1C(=O)c1c(O)c3c(c(O)c1C2=O)CC(O)(C(=O)CO)CC3OC1CC(N)C(O)C(C)O1 (stereo not given) + Cc1cncc(-c2nc(NCCc3c[nH]c4ccccc34)c3ncn(C(C)C)c3n2)c1 | 158 nM | 145 nM | 133 nM | < 31.6 nM | < 31.6 nM | 82.8% | 63.1% | 90% | 61.4% | 62.5% | 60.2% | 39.4% | 25.2% | 1.2% | 0.79% | 30.3% | 8.19% | 25.7% | 7.63% | 21.3% | viability, T/C [23]: 0.99%; viability, T/C [24]: 0.52%; viability, T/C [27]: 0.45%; viability, T/C [28]: 0.37%; viability, T/C [30]: 5.04%; viability, T/C [31]: 0.27%; viability, T/C [32]: 0.34%; viability, T/C [33]: 7.66%; viability, T/C [34]: 2.14%; viability, T/C [35]: 0.12%; viability, T/C [36]: 0.3%; viability, T/C [37]: 1.52%; viability, T/C [38]: 0.23%; viability, T/C [39]: 0.21%; viability, T/C [40]: 1.26%
4 | Nc1ccn(C2OC(CO)C(O)C2(F)F)c(=O)n1 (stereo not given) + Cc1cncc(-c2nc(NCCc3c[nH]c4ccccc34)c3ncn(C(C)C)c3n2)c1 | < 31.6 nM | < 31.6 nM | < 31.6 nM | < 31.6 nM | < 31.6 nM | 6.61% | 6.32% | 7.89% | 7.93% | 6.44% | 6.22% | 2.07% | 1.87% | 0.4% | 0.29% | 4.8% | 5.2% | 6.11% | 6.04% | 6.31% | viability, T/C [23]: 8.48%; viability, T/C [24]: 7.97%; viability, T/C [27]: 7.74%; viability, T/C [28]: 6.69%; viability, T/C [30]: 5.01%; viability, T/C [31]: 6.11%; viability, T/C [32]: 5.37%; viability, T/C [33]: 3.18%; viability, T/C [34]: 1.68%; viability, T/C [35]: 3.27%; viability, T/C [36]: 7.69%; viability, T/C [37]: 0.24%; viability, T/C [38]: 0.33%; viability, T/C [39]: 0.61%; viability, T/C [40]: 0.37%
5 | Nc1ncn(C2CC(O)C(CO)O2)c(=O)n1 (stereo not given) + Cc1cncc(-c2nc(NCCc3c[nH]c4ccccc34)c3ncn(C(C)C)c3n2)c1 | > 1000 nM | > 1000 nM | > 1000 nM | > 1000 nM | < 3.16 nM | 118% | 115% | 117% | 127% | 123% | 112% | 78.5% | 90.4% | 11.1% | 9.3% | 106% | 95.8% | 113% | 103% | 99% | viability, T/C [1]: 123%; viability, T/C [2]: 115%; viability, T/C [5]: 116%; viability, T/C [6]: 128%; viability, T/C [9]: 124%; viability, T/C [10]: 116%; viability, T/C [30]: 96.9%; viability, T/C [13]: 77.5%; viability, T/C [14]: 80.4%; viability, T/C [33]: 85.4%; viability, T/C [34]: 76.2%; viability, T/C [17]: 8.18%; viability, T/C [18]: 13.5%; viability, T/C [37]: 8.63%; viability, T/C [38]: 10.9%
